These results are taken from patent US20090098596A1, “PHOTOSTABLE FRET-COMPETENT BIARSENICAL-TETRACYSTEINE PROBES BASED ON FLUORINATED FLUORESCEINS” (priority 2006, published 2009).

Like-named read-outs stand apart in the source and are kept apart here.

Data set [1] can be described thus: Fluorescence lifetimes by TCSPC. The conditions noted are these: for t (fluorescence lifetime), parent fluorophore: 20 mM buffer HEPES, pH 7.4; for t (fluorescence lifetime), P12-Complex: TCSPC. The class given is physicochemical. The method, then: (§1) Absorption and fluorescence spectra were measured with a UVIKON 943 Double Beam UV/Vis absorption spectrophotometer and with a Perkin Elmer LS50B fluorescence spectrophotometer, respectively. Lifetime measurements were made by TCSPC in a Horiba Jobin Yvon IBH Fluorescence Lifetime Spectrometer System. The excitation source at 495 nm was a NanoLED N-01 Aqua and the detection module was TBX-04-A. Irradiation was carried out using a Superlite SUV-DC-P system incorporating a 200W DC Super-Pressure short arc lamp coupled to a light guide for high UV transmission and an electronic timer for exposure time control (Lumatec GmbH,
The fluorescence lifetimes of the complexes obtained as described in section 3.1, were determined by TCSPC. The corresponding values for each parent fluorescein were also determined in 20 mM buffer HEPES, pH 7.4 for comparison.

Data set [2] in a line: Critical Förster distances of donor-acceptor combinations. It counts as physicochemical. An excerpt: F2F1AsH and F4F1AsH have a very favorable spectral overlap, leading to a large J (the overlap integral) and thus an R0 of 5.4 nm, greater than any of the values obtained with the other combinations of donors and acceptors based on biarsenical dyes. For example the F1ASH-ReAsH pair has an R0 of 3.9 nm. Thus, the new F2F1AsH-F4F1AsH probes constitute a new donor acceptor pair extending the dynamic range for heteroFRET in studies of living cells by 40%. They also provide new possibilities in combination with other FRET donors and acceptors within and outside the biarsenical family.

Data set [3] relates to model target peptide P12 (FLNCCPGCCMEP). Description: In vitro labeling of model peptide P12; absorption and emission spectra of biarsenical-P12 complexes. It counts as physicochemical. The procedure:
as §1
To a solution of the biarsenical compound in buffer HEPES 20 mM, 1 mM 2-ME, pH 7.4, at a concentration of 0.1 μM and with a slight excess of EDT, was added the model target peptide P12 ([…]) to a final concentration of 1 μM from a stock solution in the same buffer and treated with 10 mM TCEP to reduce any disulfide bond. Emission spectra were taken after two hours of formation of the complex. FIG. 4 depicts the emision spectra of the F2F1AsH, F4F1AsH and F1AsH at equal concentration, with excitation at 490 nm. A 4-fold enhanced fluorescence emission of F2F1AsH compared to F1AsH can be observed.

A short description of data set [4]: Photostability (photobleaching under mercury arc lamp irradiation). The class given is physicochemical. The conditions noted are these: complexes with P12. The method, then: FIG. 2 illustrates a graph illustrations photobleaching of F2F1AsH-P12 (◯), F4F1AsH-P12 (□) and F1AsH-P12 (+). Full lines correspond to exponential fits. Complexes of the three dyes (10 μM) were irradiated with a mercury arc lamp through a 490-560 nm filter with an irradiance of 70 mW/cm^2;
as §1
Samples containing 10 μM of the biarsenical compounds and 10 μM of the model peptide P12, were incubated at room temperature for 1 h. Each solution of the F1AsH-peptide complex was irradiated for 120 min as previously described (see General Procedures).
Values of κbl were calculated from the monoexponential fitting of the experimental photobleaching decay, according to the model described in (Eq. 1) for the intermediate irradieation regime.^13
where τ(s) is the lifetime, Ψ is the irradiance (photons cm^−2 s^−1) and σ is the molecular absorption cross-section (cm^2 molecules^−1). Inasmuch as a broad excitation bandwidth was used, σ was computed as a mean value over the spectral distribution function of photon flux and corrected by the spectral integral with the corresponding absorption spectra, including the irradiation source and filter.

For data set [5] the following is noted: approximate value from ref 8; cited from earlier work.

For `O=C1OC2(c3cc(F)c(O)cc3Oc3cc(O)c(F)cc32)c2ccccc21` [2′,7′-difluorofluorescein], the “t (fluorescence lifetime), parent fluorophore” value in data set [1] came to 4.02 ns.
On the same count and under the same terms, the same measure for `O=C1OC2(c3ccc(O)cc3Oc3cc(O)ccc32)c2c(F)c(F)c(F)c(F)c21` [3,4,5,6-tetrafluorofluorescein]: 4.13 ns.
Take `O=C1OC2(c3ccccc31)c1cc(F)c(O)c([As]3SCCS3)c1Oc1c2cc(F)c(O)c1[As]1SCCS1` [F2FlAsH, 4′,5′-Bis(1,2,3-dithioarsolan-2-yl)-2′,7′-difluorofluorescein]: in data set [2] (acceptor F2FlAsH), the “10^13 · J (overlap integral)” value is reported as 1.37 and the Ro turned out to be 5.2 nm. For the same molecule, in data set [2] (acceptor F4FlAsH), the “10^13 · J (overlap integral)” value came to 1.58 and the Ro amounted to 5.4 nm. Further, in data set [2] (acceptor FlAsH), the “10^14 · J (overlap integral)” value was 6.41 and the Ro worked out at 4.1 nm. Further, in data set [2] (acceptor ReAsH), the “10^14 · J (overlap integral)” value is on record as 3.44 and the Ro is on record as 4.1 nm. Besides, the “shift of absorption maximum to the blue compared to FlAsH” value in data set [3] was determined as 11 nm. For the same molecule, in data set [3] (P12 complex), the “emission quantum yield relative to FlAsH complex” value came out at 2 × and the “extinction coefficient at 490 nm relative to FlAsH complex” value amounted to 2 ×. Also, the “fluorescence intensity relative to complex with parent FlAsH” value in data set [3] (P12 complex, λexc 490 nm, λem 525 nm) is given as 4 fold. In data set [3] (biarsenical-P12 complex), the λem turned out to be 522 nm. Moreover, in data set [3] (complex with P12), the Stokes shift came to 22 nm and the “Stokes shift, greater than that of the FlAsH complex by” value was 7 nm. Moreover, the “t (fluorescence lifetime), P12-Complex” value in data set [1] is reported as 4.78 ns. Besides, the “wavelength of fluorescence maximum” value in data set [4] is 516 nm.
Turning to `O=C1OC2(c3ccc(O)c([As]4SCCS4)c3Oc3c2ccc(O)c3[As]2SCCS2)c2c(F)c(F)c(F)c(F)c21` [F4FlAsH, 4′,5′-Bis(1,2,3-dithioarsolan-2-yl)-3,4,5,6-tetrafluorofluorescein], the “Φd, emission quantum yield of donor” value in data set [2] was found to be 0.4. Moreover, in data set [2] (acceptor F4FlAsH), the “10^13 · J (overlap integral)” value turned out to be 1.17 and the Ro was 4.5 nm. Moreover, in data set [2] (acceptor ReAsH), the “10^14 · J (overlap integral)” value came to 6.45 and the Ro worked out at 4.1 nm. Also, the “displacement of absorption maximum to the red compared to FlAsH” value in data set [3] was determined as 17 mn. For the same molecule, in data set [1], the “t (fluorescence lifetime), P12-Complex” value was 5.18 ns. Further, the “wavelength of fluorescence maximum” value in data set [4] came out at 538 nm.
With `O=C1OC2(c3ccccc31)c1ccc(O)c([As]3SCCS3)c1Oc1c2ccc(O)c1[As]1SCCS1` [FlAsH, 4′,5′-Bis(1,2,3-dithioarsolan-2-yl)-fluorescein, reference compound], in data set [2] (acceptor F4FlAsH), the “10^13 · J (overlap integral)” value worked out at 1.48 and the Ro was found to be 4.7 nm. For the same molecule, in data set [2] (acceptor ReAsH), the “10^14 · J (overlap integral)” value was found to be 5.03 and the Ro stood at 3.9 nm. In data set [5], the “Φd, emission quantum yield of donor” value is ~0.4. Moreover, the “t (fluorescence lifetime), P12-Complex” value in data set [1] turned out to be 4.88 ns. For the same molecule, the “τ (fluorescence lifetime)” value in data set [1] (biarsenical-P12 complex) is recorded as 4.88 ns. The “wavelength of fluorescence maximum” value in data set [4] is listed as 519.5 nm.
